Measured values published in US8507562B2, “Synthesis of (1)-beta-elemene, (-)-beta-elemenal, (-)-beta-elemenol, (-)-beta-elemene fluoride and their analogues, intermediates, and composition and uses thereof” (HYWE Pharmaceuticals, Inc., priority 2004, dated 2013).
Where two headings read alike, the source gives them in different places.

Assays:
[1] = tested on: human glioma G422 (xenograph in brain); assay: Tumor xenographed in mice brain, survival; format: in vivo
Protocol: Mice model with tumor xenographed in mice brain: Glioma cell line G-422 or SHG44 (log phase) were diluted to 2×10^7/ml in cell culture hood (no bacteria environment). Each mouse was injected with 0.05 ml of tumor cell in its brain. […] The survival time of these mice was recorded in the next 30 days. The life extension was calculated using the following formula: Life Extension Rate=[( […])/Average survival days of control group[×100 Results: […]

[2] = tested on: human breast cancer ao10/17
[3] = tested on: Colon Cancer Cells Colo 205; assay: MTS cell viability assay; details: Colo 205, drug alone
Protocol: (§1) Cells were maintained at 37° C. in a humidified atmosphere including 5% CO2. […] Drugs were dissolved in 100% DMSO and then diluted in medium for experiments.

[4] = tested on: human glioma SHG-44G (xenograph under skin); assay: Xenograph under skin, injection directly into tumor; format: in vivo, nude mice; details: for Tumor Weight X ± SD: in g (unit assumed)
Excerpt: The mice were killed after 3 weeks.
Nude mice grew on the cengliu rack.

[5] = tested on: Colon Cancer Cells HCT-15; assay: MTS cell viability assay; details: combinations with Elemene 160 μg/ml, n = 8
Protocol: as §1

[6] = Chronic toxicity study, 28 days i.p.; format: in vivo; details: rats
Protocol: In the Rat study, three groups of rats (n=20 per group, half male and half female) were given (i.p.) 7.5, 15, or 30 mg/kg/d of β-Elemene for 28 days consecutively. […] Ascites were not completely absorbed during 4 weeks without drug intake. […] The accumulated toxicity of β-Elemene (via i.p.) was not severe, except irritation at local injection site. The safe dose was 7.5 mg/kg/d.

**Q.** With (−)-Beta-elemene as the substance, how does the “Average Life Span (day) X± SD” value ([1]; 7.5 mg/kg/time iv × 10 qd) read?
**A.** The value was 12.3 ± 3.4 days.

**Q.** And the “Average Life Span (day) X± SD” value ([1]; 15 mg/kg/time iv × 10 qd)?
**A.** Its value is 13.1 ± 2.7 days.

**Q.** And the “Average Life Span (day) X± SD” value ([1]; 30 mg/kg/time iv × 10 qd)?
**A.** The value was 14.1 ± 2.3 days.

**Q.** What about the “Average Life Span (day) X± SD” value ([1]; 60 mg/kg/time iv × 10 qd) of the same substance?
**A.** Its value is 14.9 ± 2.1 days.

**Q.** And the “Inhibition Rate %” value ([2]; 12.5 mg/kg/time iv × 10 bid)?
**A.** Its value is 28.28%.

**Q.** What about the “Tumor Weight (g) X ± SD” value ([2]; 12.5 mg/kg/time iv × 10 bid) of the same substance?
**A.** The value was 0.827 ± 0.06 g.

**Q.** What about the “Inhibition Rate %” value ([2]; 12.5 mg/kg/time iv × 10 bid, listed as β-Elemene) of the same substance?
**A.** The value was 31.08%.

**Q.** What about the “Inhibition Rate %” value ([2]; 25 mg/kg/time iv × 10 bid) of the same substance?
**A.** Its value is 35.03%.

**Q.** What about the “Tumor Weight (g) X ± SD” value ([2]; 25 mg/kg/time iv × 10 bid) of the same substance?
**A.** Its value is 0.765 ± 0.1 g.

**Q.** What about the “Inhibition Rate %” value ([2]; 25 mg/kg/time iv × 10 bid, listed as β-Elemene) of the same substance?
**A.** Its value is 36.25%.

**Q.** And the “Inhibition Rate %” value ([2]; 50 mg/kg/time iv × 10 bid)?
**A.** The value was 44.14%.

**Q.** What about the “Tumor Weight (g) X ± SD” value ([2]; 50 mg/kg/time iv × 10 bid) of the same substance?
**A.** Its value is 0.643 ± 0.1 g.

**Q.** And the “Inhibition Rate %” value ([2]; 50 mg/kg/time iv × 10 bid, listed as β-Elemene)?
**A.** Its value is 46.42%.

**Q.** What about the IC50 ([3]; Time 4 hr, n = 8) of the same substance?
**A.** The IC50 was 144 ± 10.4 µg/mL.

**Q.** What about the IC50 ([3]; Time 4 hr/24 hr × 2, n = 8) of the same substance?
**A.** Its IC50 is 82.3 ± 7.11 µg/mL.

**Q.** And the IC50 ([3]; Time 4 hr/24 hr × 3, n = 8)?
**A.** The IC50 was 56.7 ± 12.6 µg/mL.

**Q.** What about the IC50 ([3]; Time 4 hr/24 hr, n = 8) of the same substance?
**A.** Its IC50 is 96.3 ± 11.1 µg/mL.

**Q.** And the IC50 ([3]; Time 8 hr, n = 8)?
**A.** The IC50 was 116 ± 4.00 µg/mL.

**Q.** And the IC50 ([3]; Time 12 hr, n = 8)?
**A.** The IC50 was 110 ± 9.51 µg/mL.

**Q.** And the IC50 ([3]; Time 24 hr, n = 8)?
**A.** The IC50 was 83.0 ± 13.7 µg/mL.

**Q.** What about the IC50 ([3]; Time 48 hr, n = 8) of the same substance?
**A.** The IC50 was 75.3 ± 5.04 µg/mL.

**Q.** What about the IC50 ([3]; Time 72 hr, n = 8) of the same substance?
**A.** Its IC50 is 77.7 ± 14.2 µg/mL.

**Q.** What about the “Inhibition Rate %” value ([4]; 15 mg/kg it × 10 qd) of the same substance?
**A.** The value was 37.83%.

**Q.** What about the “Tumor Weight X ± SD” value ([4]; 15 mg/kg it × 10 qd) of the same substance?
**A.** The value was 1.15 ± 0.33.

**Q.** What about the “Inhibition Rate %” value ([4]; 30 mg/kg it × 10 qd) of the same substance?
**A.** The value was 51.35%.

**Q.** What about the “Tumor Weight X ± SD” value ([4]; 30 mg/kg it × 10 qd) of the same substance?
**A.** The value was 0.90 ± 0.17.

**Q.** What about the “Inhibition Rate %” value ([4]; 60 mg/kg it × 10 qd) of the same substance?
**A.** Its value is 63.24%.

**Q.** And the “Tumor Weight X ± SD” value ([4]; 60 mg/kg it × 10 qd)?
**A.** Its value is 0.68 ± 0.19.

**Q.** And the IC50 ([5]; HCT-15, 4 hr/24 hr × 2)?
**A.** Its IC50 is 199 ± 11.5 µg/mL.

**Q.** And the IC50 ([5]; HCT-15, 4 hr/24 hr × 3)?
**A.** Its IC50 is 165 ± 23.0 µg/mL.

**Q.** And the IC50 ([5]; HCT-15, 4 hr/24 hr)?
**A.** The IC50 was 214 ± 15.8 µg/mL.

**Q.** What about the IC50 ([5]; HCT-15, 4 hr) of the same substance?
**A.** The IC50 was 229 ± 26.9 µg/mL.

**Q.** And the IC50 ([5]; HCT-15, 8 hr)?
**A.** Its IC50 is 215 ± 34.1 µg/mL.

**Q.** What about the IC50 ([5]; HCT-15, 12 hr) of the same substance?
**A.** The IC50 was 202 ± 21.8 µg/mL.

**Q.** What about the IC50 ([5]; HCT-15, 48 hr) of the same substance?
**A.** The IC50 was 197 ± 12.7 µg/mL.

**Q.** What about the IC50 ([5]; HCT-15, 72 hr) of the same substance?
**A.** The IC50 was 197 ± 22.3 µg/mL.

**Q.** And the “changes, low dose group” value ([6]; 7.5 mg/kg/d i.p., 28 days)?
**A.** The value was “No significant changes”.

**Q.** What about the “mortality, high dose group” value ([6]; 30 mg/kg/d i.p., 28 days, n=20) of the same substance?
**A.** Its value is “Six rats in high dose group died”.

**Q.** What about the “ascites, medium and high dose groups” value ([6]; 15 and 30 mg/kg/d i.p., 28 days) of the same substance?
**A.** The value was “Ascites were developed in all animals”.

**Q.** What about the safe dose ([6]; i.p., 28 days consecutively) of the same substance?
**A.** The safe dose was 7.5 mg/kg/day.
